In US10328116B2, “Combinations of proteasome inhibitors and cyclic peptides” (BIG DNA LTD, priority 2014, dated 2019):
Where two headings read alike, the source gives them in different places.

Tests used:
[1] = molecular target: chymotrypsin-like sites (Homo sapiens, UniProt P28074); conditions: cited from earlier work
[2] = molecular target: 20S proteasome (Homo sapiens, UniProt P20618+P28074); conditions: cited from earlier work
[3] = tested on: CWR22 human prostate cancer xenografts; conditions: cited from earlier work
[4] = tested on: WSU-DLCL2 lymphoma xenograft; conditions: at MTD; cited from earlier work
[5] = tested on: Oci-Ly7-Luc; conditions: disseminated lymphoma; cited from earlier work
[6] = tested on: PHTX22L xenografts; conditions: MTD level treatment; cited from earlier work
[7] = tested on: DP54-Luc model; conditions: in vivo; cited from earlier work
[8] = tested on: HEK293 cells; test: Sulforhodamine B relative cell growth assay in HEK293 cells (Examples 1-3); assay type: cell-based; conditions: HEK293 (αvβ3 +ve); 10 μM proteasome inhibitor, absence of cRGDfK
Protocol: Established methodology was used to prepare 80-100% confluent monolayers of HEK293 cells in T75 flasks. Cells were cultured in DMEM (Lonza) supplemented with 10% FBS (Gibco), 2 mM L-glutamine, 100 U/mL penicillin and 100 μg/mL streptomycin (“complete DMEM”).
The cells in T75 flasks were trypsinised and resuspended in complete DMEM. The cells were counted using a Neubauer chamber and seeded at approximate density of 3×10^4 cells/cm^2 and 7500 cells/cm^2 in 96 well flat bottomed tissue culture plates (Corning) 0.1 mL cell suspension per well. Cells were incubated for 24 hours at 37° C./5% CO2 (humidified).
To provide a working stock, BTZ was diluted to 10 mM in DMSO. […]
Briefly: medium was removed from wells and replaced with an equal volume of PBS. […] Optical density (OD570nm) was determined using an ELISA plate reader (Dynex MRX, Dynex Technologies).
In total, 5 replicates of the experiment were carried out. Cells treated with peptide/BTZ mixtures or control mixtures were incubated for 24 hours at 37° C./5% CO2 (humidified) then analysed by sulforhodamine B assay.
The average of the background measurements (i.e. no cells, medium only) was subtracted from each reading. ‘Ti’ is OD570nm following 24 hours treatment with drugs. […]
Using these equations, control cell growth is assigned a relative cell growth value of 100% and all cell growth values are calculated relative to this figure. […]

[9] = tested on: Cos7 cells; test: Sulforhodamine B relative cell growth assay in Cos7 cells (Example 2); assay type: cell-based; conditions: COS-7 (αvβ3 −ve); 10 μM proteasome inhibitor, absence of cRGDfK
[10] = tested on: chymotrypsin-like activity of the proteasome; conditions: highest dose used in the phase I trial; cited from earlier work
[11] = phase II trials; heavily pretreated patient population; cited from earlier work
[12] = tested on: NCI H-929 human multiple myeloma cells; test: NCI-H929 sub-cutaneous xenograft mouse tumor model, 'high' bortezomib dose (Example 7); assay type: in vivo; conditions: for Complete response (mice) / No response (mice) / Partial response (mice) / Total RR % (PR+CR): bortezomib 1 mg/kg IV biweekly, cilengitide 45 mg/kg IP QD, N = 10 mice per group
Excerpt: This was then continued until Day 21.
Partial response (PR) is defined as the first measurement of the tumor volume being 50% or less of its Day 1 volume for three consecutive measurements during the course of the study, and equal to or greater than 13.5 mm^3 for one or more of these three measurements. In a complete response (CR), the tumor volume was less than 13.5 mm^3 for three consecutive measurements during the course of the study. Total response rate (RR) is the sum of PR+CR. Treatment began on day 1 and was stopped on Day 21.

[13] = tested on: NCI H-929 Multiple Myeloma Cell Line; test: NCI H-929 sub-cutaneous xenograft, varied BTZ dose, TGI and TTE (Example 8); assay type: in vivo, mouse; conditions: endpoint day 18
Protocol: Cilengitide or vehicle was supplied as daily intra-peritoneal injection (45 mg/kg). […] After this point, dosing was continued in groups receiving 0.2 mg/kg and 0.5 mg/kg BTZ±cilengitide until day 31 to allow comparative tumour growth delay (i.e. difference in time to endpoint (TTE). […] TTE was calculated as TTE=[log(endpoint volume)-b]/m where TTE is expressed in days, endpoint volume is expressed in mm^3, b is the intercept, and m is the slope of the line obtained by linear regression of a log-transformed tumour growth data set. TTE values were plotted in Kaplan-Meier diagrams (FIGS. 9 and 10).

[14] = tested on: T47D breast cancer cell line; test: Sulforhodamine B viability, isobologram and combination index in T47D cells (Examples 4-5); assay type: cell-based; conditions: single agent at its IC50
Protocol: For assessment of combined BTZ and cilengitide toxicity, T47D cells were seeded at a density of 7500 cells/cm^2 in 96-well cell culture plates and incubated for 24 hours. Cilengitide was diluted to 20 μM in complete DMEM, then 3 serial tenfold dilutions of this were performed in complete DMEM (2 μM, 200 nM and 20 nM). Complete DMEM containing no cilengitide was provided for negative controls.
These dilutions (or DMSO for wells containing no BTZ) were added to aliquots of complete DMEM containing 0-20 μM cilengitide for a 1/150 dilution. Aliquots (0.1 mL) of each mixture were added to wells already containing 0.1 mL medium (in duplicate), resulting in a matrix of cilengitide (10 nM-10 μM) and/or BTZ (1 nM-10 μM) or neither agent (diluent only).
OD570nm readings were divided by those resulting from negative control (diluent only) wells and expressed as a percentage. Three independent replicates of this experiment were carried out.
The isoboles were obtained similarly by extrapolation of points representing 50% reduction in viability from line graphs of % viability versus concentration of one agent at variable concentration with the other agent supplied at a fixed concentration. […]

[15] = at maximum tolerated dose (MTD)

Sequence of chymotrypsin-like sites (P28074 60-263): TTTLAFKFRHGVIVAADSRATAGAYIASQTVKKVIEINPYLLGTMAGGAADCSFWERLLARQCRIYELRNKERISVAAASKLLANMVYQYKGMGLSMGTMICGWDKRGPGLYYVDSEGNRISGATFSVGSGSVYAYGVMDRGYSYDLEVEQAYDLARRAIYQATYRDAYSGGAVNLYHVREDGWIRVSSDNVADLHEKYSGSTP

## C[C@@]12OC(=O)[C@]1([C@@H](O)[C@@H]1C=CCCC1)NC(=O)[C@@H]2CCCl [Marizomib]
[1]
  inhibition of the chymotrypsin-like sites: up to 100%

## CC(C)C[C@H](NC(=O)CNC(=O)c1cc(Cl)ccc1Cl)B(O)O [Ixazomib, [(1R)-1-[[2-[(2,5-dichlorobenzoyl)amino]acetyl]amino]-3-methyl-butyl]boronic acid]
[2]
  proteasome dissociation half-life: approximately 18 minutes
[2]; faster than bortezomib
  release from the proteasome relative to bortezomib: approximately 6 fold
[3]; at half the MTD
  anti-tumoral activity: more effective than bortezomib
[3]; [15]
  anti-tumoral activity: effective anti-tumoral activity
[4]
  anti-tumoral activity: significant anti-tumoral activity
[5]
  antitumoral effect: improved antitumoral effect compared with bortezomib
[6]
  anti-tumoral effect: only ixazomib was found to exhibit an anti-tumoral effect
[7]
  alleviation of osteolytic bone disease: effective in the alleviation of osteolytic bone disease

## CC(C)C[C@H](NC(=O)[C@H](CCc1ccccc1)NC(=O)CN1CCOCC1)C(=O)N[C@@H](Cc1ccccc1)C(=O)N[C@@H](CC(C)C)C(=O)[C@@]1(C)CO1 [Carfilzomib]
[8]
  cell growth relative to untreated control cells: greater activity than ixazomib, delanzomib and oprozomib
[9]
  cell growth relative to untreated control cells: greater activity than ixazomib, delanzomib and oprozomib
[10]
  inhibition of the chymotrypsin-like activity of the proteasome in blood of patients: 88%
[11]
  partial response rate: 24%

## CC(C)C[C@H](NC(=O)[C@H](Cc1ccccc1)NC(=O)c1cnccn1)B(O)O [Bortezomib]
[12]; By Day 42, of 10 animals per group
  animals that relapsed (complete relapse): 3
[13]; 0.5 mg/kg BTZ and below, without cilengitide
  Tumour growth inhibition (TGI): virtually ineffective
[13]; BTZ doses of 0.7 mg/kg and greater, biweekly i.v.
  Tumour growth inhibition (TGI): almost complete TGI
[2]
  proteasome dissociation half-life: approximately 110 minutes
[3]; [15]
  anti-tumoral activity: effective anti-tumoral activity
[4]
  anti-tumoral activity: ineffective

## CC(C)[C@H]1C(=O)N[C@@H](CCCN=C(N)N)C(=O)NCC(=O)N[C@@H](CC(=O)O)C(=O)N[C@H](Cc2ccccc2)C(=O)N1C [Cilengitide]
[14]
  CI (combination index): 1.00
[12]; Day 1
  Complete response (mice): 0
  No response (mice): 10
  Partial response (mice): 0
  Total RR % (PR+CR): 0%
[12]; Day 4
  Complete response (mice): 0
  No response (mice): 10
  Partial response (mice): 0
  Total RR % (PR+CR): 0%
[12]; Day 8
  Complete response (mice): 0
  No response (mice): 10
  Partial response (mice): 0
  Total RR % (PR+CR): 0%
[12]; Day 12
  Complete response (mice): 0
  No response (mice): 10
  Partial response (mice): 0
  Total RR % (PR+CR): 0%
[12]; Day 15
  Complete response (mice): 0
  No response (mice): 10
  Partial response (mice): 0
  Total RR % (PR+CR): 0%
[12]; Day 18
  Complete response (mice): 0
  No response (mice): 10
  Partial response (mice): 0
  Total RR % (PR+CR): 0%
[12]; Day 21
  Complete response (mice): 0
  No response (mice): 10
  Partial response (mice): 0
  Total RR % (PR+CR): 0%
